Data reported in patent US7714034B2, “Photopolymerizable dental materials with bisacylphosphine oxides as initiators” (Ivoclar Vivadent AG, priority 2006, dated 2010).

Experiment: solubility of the photoinitiator
Assay type: physicochemical
Text: The bisacylphosphine oxides of the formula (I) absorb in the UV region and also show an absorption greater than 400 nm, so that their photolysis and radical formation can be induced by irradiation with halogen lamps customary in the dental field or also with LED lamps. The bisacylphosphine oxides of the formula (I) contain polymerizable groups and can be incorporated into polymers e.g. by copolymerization. Moreover, the bisacylphosphine oxides according to the invention are very well soluble in polar organic solvents such as acetone, ethanol, acetonitrile or tetrahydrofuran (THF) or their mixtures with water, i.e. the solubility is at least 0.01 mmol/g. It is particularly advantageous that the bisacylphosphine oxides according to the invention show a better storage stability compared with known bisacrylphosphine oxides. The compounds are characterized by a high hydrolysis stability, i.e. they are not more than 15% hydrolyzed in a mixture of […]:H2O (60:40) at 42° C. in 60 days.
To prepare the model formulation, 0.022 mmol of the photoinitiator described in Example 1 were weighed into an analysis tube and made up to 1.00 g with the above composition and dissolved accompanied by slight heating. […]

SMILES | solubility compared with Irgacure 819 | maximum solubility (in the primer composition (DEBAMP/DHPAE/water))
C=CCOCCOCc1c(C)cc(C)c(C(=O)P(=O)(C(=O)c2c(C)cc(C)c(COCCOCC=C)c2C)c2ccccc2)c1C [BAPOmAOEM] | better solubility | –
Cc1cc(C)c(C(=O)P(=O)(C(=O)c2c(C)cc(C)cc2C)c2ccccc2)c(C)c1 [Irgacure819, bis-(2,4,6-trimethylbenzoyl)-phenylphosphine oxide] | – | ^5Irgacure 819 was used due to its low solubility in a concentration of 0.005 mmol/g (= maximum solubility)
